Data taken from ChEMBL document CHEMBL3832069, “DailyMed|setid=b463cd5f-299a-45f8-a1b3-c9e7fe271955 | INDOMETHACIN- indomethacin capsule|PD-Rx Pharmaceuticals, Inc”.

Experiments:
Format in all cases: ADME, organism-based
[1] = (§1) Pharmacokinetic parameters for Indomethacin evaluated after single oral administration of 25 or 50 mg Indomethacin capsules.; set-up: dose 25 mg, dose 50 mg, route oral; conditions: human, in vivo, dosed compound id 57, dosed compound name INDOMETHACIN, regimen Single dose, tissue Plasma
Homo sapiens = assay: as §1; set-up: dose 25 mg, dose 50 mg, route oral; conditions: in vivo, po, dosed compound id 57, dosed compound name INDOMETHACIN, regimen Single dose, tissue Plasma
[2] = Pharmacokinetic parameters for Indomethacin evaluated after oral administration of Indomethacin capsules.; conditions: human, in vivo, dosed compound id 57, dosed compound name INDOMETHACIN, tissue Plasma

Cmax ([1]; po): 1000 ng/mL | Tmax ([1]; dose 25 mg, route oral): 2 h | Cmax (Homo sapiens): 2000 ng/mL | bioavailability [2]: 100% | half-life [2]: 4.5 h | fraction unbound ([2]; read-out: Protein binding): 0.01
Compound: COc1ccc2c(c1)c(CC(=O)O)c(C)n2C(=O)c1ccc(Cl)cc1 [INDOMETHACIN]
